Laboratory results published in patent US20250188427A1, “METHOD OF PRODUCING TARGET VIRUS AND CULTURE COMPOSITION” (FUJIFILM Corporation, priority 2022, published 2025).

Test system: AAV producer cell (HEK293)
Assay: AAV titer by ddPCR, JQ1 treatment with and without wash out (FIG. 4)
Type: cell-based, human
Details: JQ1 4 μmol/L for 24 hours, medium exchanged to medium without JQ1 (with doxycycline 0.5 μg/mL), recovered after further 48 hours; versus 72 hours JQ1
Protocol: The HEK cell culture solution, which had been cultured for 72 hours after the gene introduction under the conditions of 37° C. and 8% CO2, was collected, and the cells were disrupted by freezing and thawing at −80° C. Then, the supernatant was collected by centrifugation at 13,800×g, 2 mmol/L (final concentration) MgCl2, and 25 U/mL Benzonase was added thereto, and a reaction was carried out at 37° C. for 2 hours to digest gDNA (genomic DNA) and residual plasmid. The sample after the reaction was incubated at 95° C. for 15 minutes, 70° C. for 3 minutes, 40° C. for 3 minutes, and 20° C. for 3 minutes in this order, to inactivate Benzonase, and the reactant was used as a ddPCR (Droplet Digital PCR) sample. […]. The sequences of the seq18, seq19, and seq20 are set forth in SEQ ID NOs: 18 to 20 in the sequence list.
In ddPCR, droplets were formed from the prepared solution using a droplet forming apparatus, and subsequently incubated at 95° C. for 10 minutes, 94° C. for 30 seconds, and 55° C. in this order for 40 cycles, and then incubated at 98° C. for 10 minutes. Measurement was performed using a droplet reader, and the AAV genomic titer (vg/mL) was calculated.
Furthermore, the produced AAV producer cell was seeded at 5×10^5 cells/mL and incubated for 6 hours, and then doxycycline (final concentration: 0.5 μg/mL) and JQ1 (final concentration: 4 μmol/L) were added. […]

Cc1sc2c(c1C)C(c1ccc(Cl)cc1)=N[C@@H](CC(=O)OC(C)(C)C)c1nnc(C)n1-2 [(+)-JQ1, (S)-(+)-tert-butyl 2-(4-(4-chlorophenyl)-2,3,9-trimethyl-6H-thieno[3,2-f][1,2,4]triazolo[4,3-a][1,4]diazepin-6-yl)acetate]
AAV titer per cell: further improved
